{
  "source": "ChEMBL document CHEMBL3991601",
  "about": "“The target landscape of clinical kinase drugs” (Science, 2017)",
  "note": "The source made the active and inactive calls. Cut-off read from the data, not from the text of the source, for most assays here: actives have a measured Kd and inactives only a lower limit. Note: in the data inactive means no Kd found up to 30 µM.",
  "data": [
    {"biological_target": "Serine/threonine-protein kinase N1 (Homo sapiens, UniProt Q16512)", "sequence (Q16512 whole entry)": "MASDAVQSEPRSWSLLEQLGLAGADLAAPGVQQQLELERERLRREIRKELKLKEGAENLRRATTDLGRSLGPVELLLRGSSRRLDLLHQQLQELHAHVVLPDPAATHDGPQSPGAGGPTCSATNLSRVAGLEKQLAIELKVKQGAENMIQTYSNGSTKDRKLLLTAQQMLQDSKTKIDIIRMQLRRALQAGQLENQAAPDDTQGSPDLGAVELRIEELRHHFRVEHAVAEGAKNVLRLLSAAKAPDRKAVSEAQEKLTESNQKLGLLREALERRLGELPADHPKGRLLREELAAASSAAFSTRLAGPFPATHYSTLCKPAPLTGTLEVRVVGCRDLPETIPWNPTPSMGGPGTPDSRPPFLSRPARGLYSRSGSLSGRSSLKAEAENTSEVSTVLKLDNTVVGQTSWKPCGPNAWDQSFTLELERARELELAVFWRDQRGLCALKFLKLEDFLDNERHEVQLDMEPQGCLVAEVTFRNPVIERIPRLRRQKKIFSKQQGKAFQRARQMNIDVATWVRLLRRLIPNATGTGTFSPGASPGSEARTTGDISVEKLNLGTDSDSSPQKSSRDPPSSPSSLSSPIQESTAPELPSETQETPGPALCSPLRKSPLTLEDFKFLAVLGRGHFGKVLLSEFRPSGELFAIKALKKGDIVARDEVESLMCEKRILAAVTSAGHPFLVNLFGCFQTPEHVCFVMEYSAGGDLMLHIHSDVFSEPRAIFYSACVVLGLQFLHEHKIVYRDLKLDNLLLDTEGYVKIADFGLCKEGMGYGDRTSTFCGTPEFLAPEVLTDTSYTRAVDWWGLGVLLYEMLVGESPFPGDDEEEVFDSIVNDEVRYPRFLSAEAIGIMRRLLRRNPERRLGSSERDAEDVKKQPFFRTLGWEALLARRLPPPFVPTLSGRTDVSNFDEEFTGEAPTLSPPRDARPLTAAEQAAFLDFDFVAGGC", "values": [
      {"compound": "Cc1ccc(NC(=O)c2ccc(CN3CC[C@H](N(C)C)C3)c(C(F)(F)F)c2)cc1Nc1nccc(-c2cncnc2)n1", "note": "[BAFETINIB]", "Kd": "> 30 µM (inactive)"},
      {"compound": "CNC(=O)c1ccc(-c2cnc3ncc(Cc4ccc5ncccc5c4)n3n2)cc1F", "note": "[CAPMATINIB]", "Kd": "> 30 µM (inactive)"},
      {"compound": "C=CC(=O)N1CCC(Oc2cc3c(Nc4ccc(Cl)c(Cl)c4F)ncnc3cc2OC)CC1", "note": "[POZIOTINIB]", "Kd": "> 30 µM (inactive)"},
      {"compound": "C[C@@H](c1ccc2nccn2c1)n1nnc2ncc(-c3cnn(C)c3)nc21", "note": "[SAVOLITINIB]", "Kd": "> 30 µM (inactive)"}
    ]},
    {"biological_target": "Elongation factor Tu, mitochondrial (Homo sapiens, UniProt P49411)", "values": [
      {"compound": "Cc1ccc(NC(=O)c2ccc(CN3CC[C@H](N(C)C)C3)c(C(F)(F)F)c2)cc1Nc1nccc(-c2cncnc2)n1", "note": "[BAFETINIB]", "Kd": "> 30 µM (inactive)"},
      {"compound": "CNC(=O)c1ccc(-c2cnc3ncc(Cc4ccc5ncccc5c4)n3n2)cc1F", "note": "[CAPMATINIB]", "Kd": "> 30 µM (inactive)"},
      {"compound": "C=CC(=O)N1CCC(Oc2cc3c(Nc4ccc(Cl)c(Cl)c4F)ncnc3cc2OC)CC1", "note": "[POZIOTINIB]", "Kd": "> 30 µM (inactive)"},
      {"compound": "C[C@@H](c1ccc2nccn2c1)n1nnc2ncc(-c3cnn(C)c3)nc21", "note": "[SAVOLITINIB]", "Kd": "> 30 µM (inactive)"}
    ]},
    {"biological_target": "T1, Septin-9 (Homo sapiens, UniProt Q9UHD8)", "T1 sequence (Q9UHD8 whole entry)": "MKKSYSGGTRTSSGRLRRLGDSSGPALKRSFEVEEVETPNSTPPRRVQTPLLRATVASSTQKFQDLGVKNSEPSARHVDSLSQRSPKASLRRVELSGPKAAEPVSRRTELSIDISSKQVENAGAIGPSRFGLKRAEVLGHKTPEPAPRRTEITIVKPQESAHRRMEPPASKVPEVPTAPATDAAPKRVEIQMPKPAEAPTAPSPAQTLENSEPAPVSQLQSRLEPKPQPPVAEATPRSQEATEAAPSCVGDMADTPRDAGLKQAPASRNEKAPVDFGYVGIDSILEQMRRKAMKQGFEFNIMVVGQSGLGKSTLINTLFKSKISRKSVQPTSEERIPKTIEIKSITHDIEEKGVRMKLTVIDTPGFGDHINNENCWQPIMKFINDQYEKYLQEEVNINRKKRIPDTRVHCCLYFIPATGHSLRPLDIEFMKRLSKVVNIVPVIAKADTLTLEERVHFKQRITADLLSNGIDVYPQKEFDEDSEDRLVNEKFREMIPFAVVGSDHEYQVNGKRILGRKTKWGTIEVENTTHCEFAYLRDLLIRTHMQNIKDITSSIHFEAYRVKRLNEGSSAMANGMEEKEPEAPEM", "values": [
      {"compound": "Cc1ccc(NC(=O)c2ccc(CN3CC[C@H](N(C)C)C3)c(C(F)(F)F)c2)cc1Nc1nccc(-c2cncnc2)n1", "note": "[BAFETINIB]", "Kd": "> 30 µM (inactive)"},
      {"compound": "CNC(=O)c1ccc(-c2cnc3ncc(Cc4ccc5ncccc5c4)n3n2)cc1F", "note": "[CAPMATINIB]", "Kd": "> 30 µM (inactive)"},
      {"compound": "C=CC(=O)N1CCC(Oc2cc3c(Nc4ccc(Cl)c(Cl)c4F)ncnc3cc2OC)CC1", "note": "[POZIOTINIB]", "Kd": "> 30 µM (inactive)"},
      {"compound": "C[C@@H](c1ccc2nccn2c1)n1nnc2ncc(-c3cnn(C)c3)nc21", "note": "[SAVOLITINIB]", "Kd": "> 30 µM (inactive)"}
    ]},
    {"biological_target": "Eukaryotic translation initiation factor 2-alpha kinase 1 (Homo sapiens, UniProt Q9BQI3)", "sequence (Q9BQI3 whole entry)": "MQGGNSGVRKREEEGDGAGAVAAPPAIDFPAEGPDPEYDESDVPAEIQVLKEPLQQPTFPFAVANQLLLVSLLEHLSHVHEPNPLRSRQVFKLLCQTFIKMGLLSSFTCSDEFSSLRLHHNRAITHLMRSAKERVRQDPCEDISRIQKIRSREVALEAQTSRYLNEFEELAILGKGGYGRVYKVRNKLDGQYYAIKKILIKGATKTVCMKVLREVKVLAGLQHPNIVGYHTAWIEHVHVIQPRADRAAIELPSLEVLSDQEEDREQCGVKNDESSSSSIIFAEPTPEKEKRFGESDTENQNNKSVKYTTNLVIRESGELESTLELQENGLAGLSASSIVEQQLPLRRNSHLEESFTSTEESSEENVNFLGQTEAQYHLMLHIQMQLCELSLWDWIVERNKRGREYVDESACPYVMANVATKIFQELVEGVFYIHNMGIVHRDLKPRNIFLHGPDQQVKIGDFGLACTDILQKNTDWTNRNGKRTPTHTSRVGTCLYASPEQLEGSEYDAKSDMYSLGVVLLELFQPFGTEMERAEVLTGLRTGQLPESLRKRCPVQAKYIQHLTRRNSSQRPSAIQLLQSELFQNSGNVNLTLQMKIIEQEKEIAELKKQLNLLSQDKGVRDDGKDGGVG", "values": [
      {"compound": "Cc1ccc(NC(=O)c2ccc(CN3CC[C@H](N(C)C)C3)c(C(F)(F)F)c2)cc1Nc1nccc(-c2cncnc2)n1", "note": "[BAFETINIB]", "Kd": "> 30 µM (inactive)"},
      {"compound": "CNC(=O)c1ccc(-c2cnc3ncc(Cc4ccc5ncccc5c4)n3n2)cc1F", "note": "[CAPMATINIB]", "Kd": "> 30 µM (inactive)"},
      {"compound": "C=CC(=O)N1CCC(Oc2cc3c(Nc4ccc(Cl)c(Cl)c4F)ncnc3cc2OC)CC1", "note": "[POZIOTINIB]", "Kd": "> 30 µM (inactive)"},
      {"compound": "C[C@@H](c1ccc2nccn2c1)n1nnc2ncc(-c3cnn(C)c3)nc21", "note": "[SAVOLITINIB]", "Kd": "> 30 µM (inactive)"}
    ]},
    {"biological_target": "Serine/threonine-protein kinase MRCK alpha (Homo sapiens, UniProt Q5VT25)", "sequence (Q5VT25 whole entry)": "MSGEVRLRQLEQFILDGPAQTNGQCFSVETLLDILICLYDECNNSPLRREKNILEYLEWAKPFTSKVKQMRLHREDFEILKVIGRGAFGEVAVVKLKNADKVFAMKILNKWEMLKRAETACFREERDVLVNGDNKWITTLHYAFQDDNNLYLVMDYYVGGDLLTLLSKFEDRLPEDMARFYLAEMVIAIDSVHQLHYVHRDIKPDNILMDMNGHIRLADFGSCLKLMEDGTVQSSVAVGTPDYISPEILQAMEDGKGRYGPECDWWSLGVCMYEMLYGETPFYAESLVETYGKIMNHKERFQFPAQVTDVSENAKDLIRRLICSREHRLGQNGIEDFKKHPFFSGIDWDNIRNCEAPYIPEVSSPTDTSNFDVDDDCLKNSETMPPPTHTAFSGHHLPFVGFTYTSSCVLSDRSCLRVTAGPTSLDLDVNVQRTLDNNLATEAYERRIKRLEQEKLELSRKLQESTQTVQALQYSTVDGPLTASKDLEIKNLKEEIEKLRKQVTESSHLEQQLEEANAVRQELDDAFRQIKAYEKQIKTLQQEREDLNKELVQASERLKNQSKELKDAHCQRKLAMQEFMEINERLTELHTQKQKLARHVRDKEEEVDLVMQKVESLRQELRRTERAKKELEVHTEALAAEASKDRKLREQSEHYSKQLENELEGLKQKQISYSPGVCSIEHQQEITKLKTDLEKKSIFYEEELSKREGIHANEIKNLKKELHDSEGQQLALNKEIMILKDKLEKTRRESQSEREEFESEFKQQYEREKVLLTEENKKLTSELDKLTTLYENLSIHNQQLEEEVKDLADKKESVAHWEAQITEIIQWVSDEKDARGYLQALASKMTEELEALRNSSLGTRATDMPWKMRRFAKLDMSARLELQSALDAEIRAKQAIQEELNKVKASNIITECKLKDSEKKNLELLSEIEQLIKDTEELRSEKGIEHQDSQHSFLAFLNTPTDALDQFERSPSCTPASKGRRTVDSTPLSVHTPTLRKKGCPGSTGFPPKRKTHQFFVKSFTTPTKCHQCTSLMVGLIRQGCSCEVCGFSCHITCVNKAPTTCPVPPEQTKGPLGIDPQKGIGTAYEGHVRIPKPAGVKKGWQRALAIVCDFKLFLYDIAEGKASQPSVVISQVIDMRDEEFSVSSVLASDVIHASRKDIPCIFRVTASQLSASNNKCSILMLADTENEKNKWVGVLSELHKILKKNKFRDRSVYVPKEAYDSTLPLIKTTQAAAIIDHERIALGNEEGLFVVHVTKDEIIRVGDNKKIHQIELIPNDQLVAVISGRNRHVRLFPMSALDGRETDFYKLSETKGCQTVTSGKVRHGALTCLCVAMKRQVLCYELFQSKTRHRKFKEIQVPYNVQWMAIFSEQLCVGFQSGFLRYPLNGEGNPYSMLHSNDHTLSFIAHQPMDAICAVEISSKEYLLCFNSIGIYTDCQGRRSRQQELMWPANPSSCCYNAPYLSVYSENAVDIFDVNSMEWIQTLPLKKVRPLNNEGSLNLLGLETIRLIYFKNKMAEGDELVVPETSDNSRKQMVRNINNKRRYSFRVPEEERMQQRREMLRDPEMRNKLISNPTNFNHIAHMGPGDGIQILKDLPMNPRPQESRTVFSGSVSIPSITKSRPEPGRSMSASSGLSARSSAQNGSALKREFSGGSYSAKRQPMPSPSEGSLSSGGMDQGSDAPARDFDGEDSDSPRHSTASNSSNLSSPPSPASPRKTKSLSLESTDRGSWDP", "values": [
      {"compound": "Cc1ccc(NC(=O)c2ccc(CN3CC[C@H](N(C)C)C3)c(C(F)(F)F)c2)cc1Nc1nccc(-c2cncnc2)n1", "note": "[BAFETINIB]", "Kd": "> 30 µM (inactive)"},
      {"compound": "CNC(=O)c1ccc(-c2cnc3ncc(Cc4ccc5ncccc5c4)n3n2)cc1F", "note": "[CAPMATINIB]", "Kd": "> 30 µM (inactive)"},
      {"compound": "C=CC(=O)N1CCC(Oc2cc3c(Nc4ccc(Cl)c(Cl)c4F)ncnc3cc2OC)CC1", "note": "[POZIOTINIB]", "Kd": "> 30 µM (inactive)"},
      {"compound": "C[C@@H](c1ccc2nccn2c1)n1nnc2ncc(-c3cnn(C)c3)nc21", "note": "[SAVOLITINIB]", "Kd": "> 30 µM (inactive)"}
    ]},
    {"biological_target": "Mitogen-activated protein kinase 9 (Homo sapiens, UniProt P45984)", "sequence (P45984 whole entry)": "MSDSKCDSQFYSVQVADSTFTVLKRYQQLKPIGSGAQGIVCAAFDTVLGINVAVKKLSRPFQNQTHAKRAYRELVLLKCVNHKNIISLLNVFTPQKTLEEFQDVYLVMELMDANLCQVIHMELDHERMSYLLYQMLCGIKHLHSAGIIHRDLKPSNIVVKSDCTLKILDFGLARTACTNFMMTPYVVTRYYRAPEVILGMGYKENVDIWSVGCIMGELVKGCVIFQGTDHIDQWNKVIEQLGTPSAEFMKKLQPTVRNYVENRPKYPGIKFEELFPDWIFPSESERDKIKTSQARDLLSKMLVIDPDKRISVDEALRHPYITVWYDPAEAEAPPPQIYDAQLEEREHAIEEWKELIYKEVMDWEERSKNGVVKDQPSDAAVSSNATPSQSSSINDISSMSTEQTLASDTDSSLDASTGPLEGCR", "values": [
      {"compound": "Cc1ccc(NC(=O)c2ccc(CN3CC[C@H](N(C)C)C3)c(C(F)(F)F)c2)cc1Nc1nccc(-c2cncnc2)n1", "note": "[BAFETINIB]", "Kd": "> 30 µM (inactive)"},
      {"compound": "CNC(=O)c1ccc(-c2cnc3ncc(Cc4ccc5ncccc5c4)n3n2)cc1F", "note": "[CAPMATINIB]", "Kd": "> 30 µM (inactive)"},
      {"compound": "C=CC(=O)N1CCC(Oc2cc3c(Nc4ccc(Cl)c(Cl)c4F)ncnc3cc2OC)CC1", "note": "[POZIOTINIB]", "Kd": "> 30 µM (inactive)"},
      {"compound": "C[C@@H](c1ccc2nccn2c1)n1nnc2ncc(-c3cnn(C)c3)nc21", "note": "[SAVOLITINIB]", "Kd": "> 30 µM (inactive)"}
    ]},
    {"biological_target": "Casein kinase I isoform epsilon (Homo sapiens, UniProt P49674)", "sequence (P49674 whole entry, canonical isoform)": "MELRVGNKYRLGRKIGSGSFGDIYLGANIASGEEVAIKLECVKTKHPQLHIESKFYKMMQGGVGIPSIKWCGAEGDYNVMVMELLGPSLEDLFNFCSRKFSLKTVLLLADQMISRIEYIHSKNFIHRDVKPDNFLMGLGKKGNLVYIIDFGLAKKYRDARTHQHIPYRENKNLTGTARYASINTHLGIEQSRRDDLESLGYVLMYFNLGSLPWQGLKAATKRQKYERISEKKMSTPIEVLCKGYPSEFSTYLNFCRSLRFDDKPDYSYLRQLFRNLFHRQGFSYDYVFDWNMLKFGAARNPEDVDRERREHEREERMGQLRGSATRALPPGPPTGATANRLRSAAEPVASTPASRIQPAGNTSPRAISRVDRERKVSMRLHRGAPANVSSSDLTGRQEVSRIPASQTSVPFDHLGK", "values": [
      {"compound": "Cc1ccc(NC(=O)c2ccc(CN3CC[C@H](N(C)C)C3)c(C(F)(F)F)c2)cc1Nc1nccc(-c2cncnc2)n1", "note": "[BAFETINIB]", "Kd": "> 30 µM (inactive)"},
      {"compound": "CNC(=O)c1ccc(-c2cnc3ncc(Cc4ccc5ncccc5c4)n3n2)cc1F", "note": "[CAPMATINIB]", "Kd": "> 30 µM (inactive)"},
      {"compound": "C=CC(=O)N1CCC(Oc2cc3c(Nc4ccc(Cl)c(Cl)c4F)ncnc3cc2OC)CC1", "note": "[POZIOTINIB]", "Kd": "> 30 µM (inactive)"},
      {"compound": "C[C@@H](c1ccc2nccn2c1)n1nnc2ncc(-c3cnn(C)c3)nc21", "note": "[SAVOLITINIB]", "Kd": "> 30 µM (inactive)"}
    ]},
    {"biological_target": "Dual specificity mitogen-activated protein kinase kinase 1 (Homo sapiens, UniProt Q02750)", "sequence (Q02750 whole entry)": "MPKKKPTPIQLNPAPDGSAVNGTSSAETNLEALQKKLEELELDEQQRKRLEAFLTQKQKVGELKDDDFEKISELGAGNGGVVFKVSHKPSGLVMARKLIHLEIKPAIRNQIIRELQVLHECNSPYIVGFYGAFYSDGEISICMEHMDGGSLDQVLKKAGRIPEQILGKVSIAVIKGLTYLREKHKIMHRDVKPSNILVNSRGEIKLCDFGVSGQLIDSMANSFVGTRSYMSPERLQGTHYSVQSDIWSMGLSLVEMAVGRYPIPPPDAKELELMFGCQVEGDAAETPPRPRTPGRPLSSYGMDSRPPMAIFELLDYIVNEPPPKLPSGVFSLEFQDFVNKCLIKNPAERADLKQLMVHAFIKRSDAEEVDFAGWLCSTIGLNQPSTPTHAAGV", "values": [
      {"compound": "Cc1ccc(NC(=O)c2ccc(CN3CC[C@H](N(C)C)C3)c(C(F)(F)F)c2)cc1Nc1nccc(-c2cncnc2)n1", "note": "[BAFETINIB]", "Kd": "> 30 µM (inactive)"},
      {"compound": "CNC(=O)c1ccc(-c2cnc3ncc(Cc4ccc5ncccc5c4)n3n2)cc1F", "note": "[CAPMATINIB]", "Kd": "> 30 µM (inactive)"},
      {"compound": "C=CC(=O)N1CCC(Oc2cc3c(Nc4ccc(Cl)c(Cl)c4F)ncnc3cc2OC)CC1", "note": "[POZIOTINIB]", "Kd": "> 30 µM (inactive)"},
      {"compound": "C[C@@H](c1ccc2nccn2c1)n1nnc2ncc(-c3cnn(C)c3)nc21", "note": "[SAVOLITINIB]", "Kd": "> 30 µM (inactive)"}
    ]},
    {"biological_target": "NADH dehydrogenase [ubiquinone] 1 alpha subcomplex subunit 13 (Homo sapiens, UniProt Q9P0J0)", "values": [
      {"compound": "Cc1ccc(NC(=O)c2ccc(CN3CC[C@H](N(C)C)C3)c(C(F)(F)F)c2)cc1Nc1nccc(-c2cncnc2)n1", "note": "[BAFETINIB]", "Kd": "> 30 µM (inactive)"}
    ]},
    {"biological_target": "Tyrosine-protein kinase FRK (Homo sapiens, UniProt P42685)", "sequence (P42685 whole entry)": "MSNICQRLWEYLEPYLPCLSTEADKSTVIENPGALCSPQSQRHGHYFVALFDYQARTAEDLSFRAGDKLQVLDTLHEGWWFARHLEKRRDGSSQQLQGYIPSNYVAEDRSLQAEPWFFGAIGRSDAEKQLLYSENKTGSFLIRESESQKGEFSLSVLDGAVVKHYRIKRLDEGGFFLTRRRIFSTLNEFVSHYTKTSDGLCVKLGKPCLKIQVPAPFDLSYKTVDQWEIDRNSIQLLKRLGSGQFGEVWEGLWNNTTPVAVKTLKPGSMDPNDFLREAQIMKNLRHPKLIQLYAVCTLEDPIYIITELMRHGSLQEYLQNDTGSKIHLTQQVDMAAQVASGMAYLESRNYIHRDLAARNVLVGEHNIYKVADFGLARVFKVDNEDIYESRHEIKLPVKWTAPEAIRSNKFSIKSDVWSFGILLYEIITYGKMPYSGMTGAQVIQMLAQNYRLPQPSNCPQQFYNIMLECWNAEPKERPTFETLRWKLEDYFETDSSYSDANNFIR", "values": [
      {"compound": "Cc1ccc(NC(=O)c2ccc(CN3CC[C@H](N(C)C)C3)c(C(F)(F)F)c2)cc1Nc1nccc(-c2cncnc2)n1", "note": "[BAFETINIB]", "Kd": "0.428 µM (active)"},
      {"compound": "CNC(=O)c1ccc(-c2cnc3ncc(Cc4ccc5ncccc5c4)n3n2)cc1F", "note": "[CAPMATINIB]", "Kd": "> 30 µM (inactive)"},
      {"compound": "C=CC(=O)N1CCC(Oc2cc3c(Nc4ccc(Cl)c(Cl)c4F)ncnc3cc2OC)CC1", "note": "[POZIOTINIB]", "Kd": "> 30 µM (inactive)"},
      {"compound": "C[C@@H](c1ccc2nccn2c1)n1nnc2ncc(-c3cnn(C)c3)nc21", "note": "[SAVOLITINIB]", "Kd": "> 30 µM (inactive)"}
    ]},
    {"biological_target": "T2, Serine/threonine-protein kinase NLK (Homo sapiens, UniProt Q9UBE8)", "T2 sequence (Q9UBE8 whole entry)": "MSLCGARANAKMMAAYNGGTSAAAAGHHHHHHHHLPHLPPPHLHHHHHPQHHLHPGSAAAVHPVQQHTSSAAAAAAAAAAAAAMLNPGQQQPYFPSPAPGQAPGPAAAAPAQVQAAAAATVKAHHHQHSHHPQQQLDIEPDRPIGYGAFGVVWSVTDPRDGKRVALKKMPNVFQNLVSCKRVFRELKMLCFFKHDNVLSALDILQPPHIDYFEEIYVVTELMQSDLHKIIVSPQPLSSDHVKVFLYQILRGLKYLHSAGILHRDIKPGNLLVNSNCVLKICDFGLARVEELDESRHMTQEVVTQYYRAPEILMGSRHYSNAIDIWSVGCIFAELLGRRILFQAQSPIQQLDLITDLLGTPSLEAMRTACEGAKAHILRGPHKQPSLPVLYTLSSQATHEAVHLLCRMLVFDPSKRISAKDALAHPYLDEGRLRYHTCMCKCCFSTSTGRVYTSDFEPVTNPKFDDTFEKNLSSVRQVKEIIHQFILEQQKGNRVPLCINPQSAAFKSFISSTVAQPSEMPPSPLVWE", "values": [
      {"compound": "Cc1ccc(NC(=O)c2ccc(CN3CC[C@H](N(C)C)C3)c(C(F)(F)F)c2)cc1Nc1nccc(-c2cncnc2)n1", "note": "[BAFETINIB]", "Kd": "> 30 µM (inactive)"},
      {"compound": "CNC(=O)c1ccc(-c2cnc3ncc(Cc4ccc5ncccc5c4)n3n2)cc1F", "note": "[CAPMATINIB]", "Kd": "> 30 µM (inactive)"},
      {"compound": "C=CC(=O)N1CCC(Oc2cc3c(Nc4ccc(Cl)c(Cl)c4F)ncnc3cc2OC)CC1", "note": "[POZIOTINIB]", "Kd": "> 30 µM (inactive)"},
      {"compound": "C[C@@H](c1ccc2nccn2c1)n1nnc2ncc(-c3cnn(C)c3)nc21", "note": "[SAVOLITINIB]", "Kd": "> 30 µM (inactive)"}
    ]},
    {"biological_target": "T3, Activin receptor type-1B (Homo sapiens, UniProt P36896)", "T3 sequence (P36896 whole entry)": "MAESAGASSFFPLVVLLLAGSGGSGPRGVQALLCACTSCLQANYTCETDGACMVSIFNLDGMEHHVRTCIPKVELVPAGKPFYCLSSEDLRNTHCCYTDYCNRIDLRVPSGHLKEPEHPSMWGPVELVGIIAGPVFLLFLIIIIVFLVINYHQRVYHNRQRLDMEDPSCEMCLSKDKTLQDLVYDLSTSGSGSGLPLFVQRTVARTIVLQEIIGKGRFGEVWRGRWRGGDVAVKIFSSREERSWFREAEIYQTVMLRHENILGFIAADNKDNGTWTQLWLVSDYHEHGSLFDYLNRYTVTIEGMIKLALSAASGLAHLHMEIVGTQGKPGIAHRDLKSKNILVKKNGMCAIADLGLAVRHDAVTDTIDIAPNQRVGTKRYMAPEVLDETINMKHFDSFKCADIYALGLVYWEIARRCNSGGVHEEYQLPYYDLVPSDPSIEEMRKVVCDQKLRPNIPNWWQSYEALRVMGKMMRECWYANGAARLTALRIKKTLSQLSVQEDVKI", "values": [
      {"compound": "Cc1ccc(NC(=O)c2ccc(CN3CC[C@H](N(C)C)C3)c(C(F)(F)F)c2)cc1Nc1nccc(-c2cncnc2)n1", "note": "[BAFETINIB]", "Kd": "> 30 µM (inactive)"},
      {"compound": "CNC(=O)c1ccc(-c2cnc3ncc(Cc4ccc5ncccc5c4)n3n2)cc1F", "note": "[CAPMATINIB]", "Kd": "> 30 µM (inactive)"},
      {"compound": "C=CC(=O)N1CCC(Oc2cc3c(Nc4ccc(Cl)c(Cl)c4F)ncnc3cc2OC)CC1", "note": "[POZIOTINIB]", "Kd": "> 30 µM (inactive)"}
    ]}
  ]
}
